Data published in patent US11174268B2, “Benzenesulfonamide compouds and their use as therapeutic agents” (Xenon Pharmaceuticals Inc., priority 2016, dated 2021).
Counter-ions that a name gives are not always drawn. Like-named read-outs stand apart in the source and are kept apart here.

Key:
NaV1.1 = NaV1.1 (Homo sapiens (Human), UniProt P35498); assay: Sodium Influx Assay (Flux), NaV1.1; format: cell-based; conditions: Trex HEK293 cells, ANG2 dye, inactivated state;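 further: channels co-expressed with human β1 subunit and held open by modulators, cells exposed to compounds for one hour at room temperature, IC50 from percent inhibition of influx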
NaV1.6 = NaV1.6 (Homo sapiens (Human), UniProt Q9UQD0); assay: Sodium Influx Assay (Flux), NaV1.6; format: cell-based; conditions: Trex HEK293 cells, ANG2 dye, inactivated state;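 further: Tetracycline-induced cells, compounds applied for one hour at room temperature with modulators holding channels open, IC50 from percent inhibition of sodium influx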
NaV1.5 = NaV1.5 (Homo sapiens (Human), UniProt Q14524); assay: Sodium Influx Assay (Flux), NaV1.5
[1] = read-out: Flux NaV1.5 IC50, Trex HEK293 cells, ANG2 dye, inactivated state

Sequence of NaV1.5 (Q14524 other isoform, or with tags, fused parts or gaps): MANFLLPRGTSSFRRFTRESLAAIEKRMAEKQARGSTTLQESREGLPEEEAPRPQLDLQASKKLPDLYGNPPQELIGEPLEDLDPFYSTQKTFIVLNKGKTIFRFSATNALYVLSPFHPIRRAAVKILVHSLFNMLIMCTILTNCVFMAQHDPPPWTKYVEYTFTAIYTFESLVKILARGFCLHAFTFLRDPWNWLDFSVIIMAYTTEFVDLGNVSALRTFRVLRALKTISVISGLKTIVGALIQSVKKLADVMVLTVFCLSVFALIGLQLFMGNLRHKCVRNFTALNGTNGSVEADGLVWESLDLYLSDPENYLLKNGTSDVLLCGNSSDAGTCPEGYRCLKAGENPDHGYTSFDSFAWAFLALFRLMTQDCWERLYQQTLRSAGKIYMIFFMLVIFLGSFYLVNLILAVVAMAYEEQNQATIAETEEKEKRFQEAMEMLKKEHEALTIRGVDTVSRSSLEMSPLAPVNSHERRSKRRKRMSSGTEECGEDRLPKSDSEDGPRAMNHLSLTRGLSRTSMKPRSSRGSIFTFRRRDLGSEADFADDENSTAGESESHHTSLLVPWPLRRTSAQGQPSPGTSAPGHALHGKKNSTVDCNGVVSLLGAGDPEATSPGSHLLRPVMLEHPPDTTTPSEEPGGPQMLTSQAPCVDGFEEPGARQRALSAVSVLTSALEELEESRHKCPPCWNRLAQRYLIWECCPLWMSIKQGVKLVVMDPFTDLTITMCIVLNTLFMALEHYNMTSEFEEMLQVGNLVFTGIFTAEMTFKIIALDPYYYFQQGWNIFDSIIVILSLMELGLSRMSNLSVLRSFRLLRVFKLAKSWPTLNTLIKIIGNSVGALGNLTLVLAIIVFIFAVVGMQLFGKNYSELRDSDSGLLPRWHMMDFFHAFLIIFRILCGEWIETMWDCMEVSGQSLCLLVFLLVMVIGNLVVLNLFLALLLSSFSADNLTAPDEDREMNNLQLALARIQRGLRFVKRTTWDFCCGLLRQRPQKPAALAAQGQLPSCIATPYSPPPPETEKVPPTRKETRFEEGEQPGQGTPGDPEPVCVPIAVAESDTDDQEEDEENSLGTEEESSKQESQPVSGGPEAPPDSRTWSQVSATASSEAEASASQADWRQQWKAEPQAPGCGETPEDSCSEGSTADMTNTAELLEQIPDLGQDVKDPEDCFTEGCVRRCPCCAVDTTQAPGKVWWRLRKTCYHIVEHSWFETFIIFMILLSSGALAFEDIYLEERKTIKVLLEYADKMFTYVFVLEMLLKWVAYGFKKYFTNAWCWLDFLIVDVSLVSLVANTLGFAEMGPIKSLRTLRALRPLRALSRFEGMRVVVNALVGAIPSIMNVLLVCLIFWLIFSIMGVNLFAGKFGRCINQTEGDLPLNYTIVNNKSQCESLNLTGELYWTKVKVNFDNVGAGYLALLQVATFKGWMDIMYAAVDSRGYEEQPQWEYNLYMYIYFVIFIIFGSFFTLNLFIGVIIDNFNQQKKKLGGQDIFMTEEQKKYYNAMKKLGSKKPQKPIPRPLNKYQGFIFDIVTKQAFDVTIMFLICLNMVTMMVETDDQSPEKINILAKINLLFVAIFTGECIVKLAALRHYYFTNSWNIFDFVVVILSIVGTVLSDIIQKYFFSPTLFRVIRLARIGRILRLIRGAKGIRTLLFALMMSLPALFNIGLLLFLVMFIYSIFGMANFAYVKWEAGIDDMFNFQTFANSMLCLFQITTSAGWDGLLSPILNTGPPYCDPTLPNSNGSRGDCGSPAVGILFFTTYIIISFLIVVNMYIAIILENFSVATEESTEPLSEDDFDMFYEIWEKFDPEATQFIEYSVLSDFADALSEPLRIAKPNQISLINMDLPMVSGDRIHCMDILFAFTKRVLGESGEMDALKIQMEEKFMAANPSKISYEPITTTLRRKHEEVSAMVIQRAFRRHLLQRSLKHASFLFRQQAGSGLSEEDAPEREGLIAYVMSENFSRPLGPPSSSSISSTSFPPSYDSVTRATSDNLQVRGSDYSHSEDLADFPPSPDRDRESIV

| Molecule | IC50 (NaV1.1) [µM] | IC50 (NaV1.6) [µM] | IC50 (NaV1.5; [1]) [µM] | IC50 (NaV1.5) [µM] |
| --- | --- | --- | --- | --- |
| 2,6-difluoro-4-((2-fluoro-6-((3-hydroxy-3-methylazetidin-1-yl)methyl)benzyl)amino)-N-(thiazol-4-yl)benzenesulfonamide formate [Example 169] | 6.38 | 0.011 | 29 | – |
| 4-((2-((3-(difluoromethyl)azetidin-1-yl)methyl)-6-fluorobenzyl)amino)-2,6-difluoro-N-(thiazol-4-yl)benzenesulfonamide formate [Example 168] | 17.7 | 0.12 | 21.7 | – |
| C[C@@H](Oc1ccc(S(=O)(=O)Nc2ncns2)cc1Cl)c1ccccc1 (racemic) [Example 87, (R) and (S)-3-chloro-4-(1-phenylethoxy)-N-(1,2,4-thiadiazol-5-yl)benzenesulfonamide] | ≥ 30 | 8.6 | – | 24.7 |
| CC[C@H](Nc1cc(F)c(S(=O)(=O)Nc2nccs2)cc1Br)c1ccccc1 [Example 1, (S)-5-bromo-2-fluoro-4-((1-phenylpropyl)amino)-N-(thiazol-2-yl)benzenesulfonamide] | 0.784 | 0.12 | 8.92 | – |
| C[C@H](Nc1cc(F)c(S(=O)(=O)Nc2nccs2)cc1Cl)c1cccc2ccccc12 [Example 2, (S)-5-chloro-2-fluoro-4-((1-(naphthalen-1-yl)ethyl)amino)-N-(thiazol-2-yl)benzenesulfonamide] | 16 | 5.02 | 8.25 | – |
| C[C@H](Nc1cc(F)c(S(=O)(=O)Nc2nccs2)cc1Cl)c1cccc(C(F)(F)F)c1 [Example 3, (S)-5-chloro-2-fluoro-N-(thiazol-2-yl)-4-((1-(3-(trifluoromethyl)phenyl)ethyl)amino)benzenesulfonamide] | 3.38 | 0.679 | 5.25 | – |
| C[C@H](Nc1cc(F)c(S(=O)(=O)Nc2cscn2)cc1Cl)c1cccc(Cl)c1F [Example 6, (S)-5-chloro-4-((1-(3-chloro-2-fluorophenyl)ethyl)amino)-2-fluoro-N-(thiazol-4-yl)benzenesulfonamide] | 3.76 | 3.38 | 5.52 | – |
| O=S(=O)(Nc1cscn1)c1c(F)cc(NCc2c(F)cccc2CN2CC3(COC3)C2)cc1F [Example 153, 4-((2-((2-oxa-6-azaspiro[3.3]heptan-6-yl)methyl)-6-fluorobenzyl)amino)-2,6-difluoro-N-(thiazol-4-yl)benzenesulfonamide formate] | – | – | 30 | – |
| O=S(=O)(Nc1cscn1)c1c(F)cc(NCc2c(F)cccc2CN2CCCC2)cc1F [Example 166, 2,6-difluoro-4-((2-fluoro-6-(pyrrolidin-1-ylmethyl)benzyl)amino)-N-(thiazol-4-yl)benzenesulfonamide formate] | – | – | 15.2 | – |
| COC1CN(Cc2cccc(F)c2CNc2cc(F)c(S(=O)(=O)Nc3cscn3)c(F)c2)C1 [Example 171, 2,6-difluoro-4-((2-fluoro-6-((3-methoxyazetidin-1-yl)methyl)benzyl)amino)-N-(thiazol-4-yl)benzenesulfonamide formate] | – | – | 16.8 | – |
| COc1ccc(F)c([C@H](C)Nc2cc(F)c(S(=O)(=O)Nc3cscn3)c(F)c2)c1 [Example 238, (S)-2,6-difluoro-4-((1-(2-fluoro-5-methoxyphenyl)ethyl)amino)-N-(thiazol-4-yl)benzenesulfonamide] | 6.45 | – | – | – |
| C[C@H](Nc1ccc(S(=O)(=O)Nc2cscn2)cc1C(F)(F)F)c1cc(F)ccc1F [Example 274, (S)-4-((1-(2,5-difluorophenyl)ethyl)amino)-N-(thiazol-4-yl)-3-(trifluoromethyl)benzenesulfonamide] | – | – | 4.6 | – |
| CCc1cc(S(=O)(=O)Nc2cscn2)c(F)cc1N[C@@H](C)c1cc(F)ccc1F [Example 297, (S)-4-((1-(2,5-difluorophenyl)ethyl)amino)-5-ethyl-2-fluoro-N-(thiazol-4-yl)benzenesulfonamide] | – | – | 8.63 | – |
